The text below walks through data of patent US9650390B2, “Water-soluble taxane derivatives and uses thereof” (priority 2014, dated 2017).

Each structure is given as a SMILES string.

The nature of data set [1]: In vitro dissociation in blood plasma of rat. Type of data set: in vitro ADME, SD rats. The note with it: fresh SD rat plasma, 37° C.; for Sampling time/Dissociation percent (%) 2 min: 2 min incubation; for Sampling time/Dissociation percent (%) 5 min: 5 min incubation; for Sampling time/Dissociation percent (%) 10 min: 10 min incubation. The procedure:
The obtained water soluble taxane derivatives of the following formulae were formulated as 0.2 mg/ml aqueous solutions. […] After 2 min, 5 min and 10 min of incubation, 0.2 ml of solutions were respectively taken from each of the samples, and added to acetonitrile (0.4 ml) cooled to −20° C. for precipitation of protein.

The nature of data set [2]: In vitro dissociation in blood plasma of rabbit. Type of data set: in vitro ADME, New Zealand white rabbits. To be noted: fresh New Zealand white rabbit plasma, 37° C. How it is done: The obtained water soluble taxane derivatives of the following formulae were formulated as 0.2 mg/ml aqueous solutions. […]
The conditions of data set [3]: physiological saline.

Consider `CC(=O)O[C@@]12CO[C@@H]1C[C@H](O)[C@@]1(C)C(=O)[C@H](O)C3=C(C)[C@@H](OC(=O)[C@H](OC(=O)[C@H](F)CC(C)N(C)C)[C@@H](NC(=O)OC(C)(C)C)c4ccccc4)C[C@@](O)([C@@H](OC(=O)c4ccccc4)[C@H]21)C3(C)C.Cl` (stereo partly drawn) [Compound C13, 2′-O-[4-N,N-dimethylamino-2(R)-fluorovaleryl]docetaxel hydrochloride], for which, in data set [1], the “Sampling time/Dissociation percent (%) 2 min” value is recorded as 44.8%, the “Sampling time/Dissociation percent (%) 5 min” value stood at 84.8% and the “Sampling time/Dissociation percent (%) 10 min” value came to 92.7%. In addition, in data set [2], the “Sampling time/Dissociation percent (%) 2 min” value turned out to be 46.2%, the “Sampling time/Dissociation percent (%) 5 min” value is recorded as 78.9% and the “Sampling time/Dissociation percent (%) 10 min” value was found to be 93.4%. In addition, the “Solubility” value in data set [3] came out at 2300 µg/mL.

`CC(=O)O[C@H]1C(=O)[C@]23C[C@H]2C[C@H]2OC[C@@]2(OC(C)=O)[C@H]3[C@H](OC(=O)c2ccccc2)[C@]2(O)C[C@H](OC(=O)[C@H](OC(=O)[C@H](F)CC(C)N(C)C)[C@@H](NC(=O)OC(C)(C)C)c3ccccc3)C(C)=C1C2(C)C.Cl` (stereo partly drawn) [Compound C16, 2′-O-[4-N,N-dimethylamino-2(R)-fluorovaleryl]larotaxel hydrochloride]: in data set [1], the “Sampling time/Dissociation percent (%) 2 min” value was 61.1%, the “Sampling time/Dissociation percent (%) 5 min” value is recorded as 93.8% and the “Sampling time/Dissociation percent (%) 10 min” value is reported as 100%. In data set [2], the “Sampling time/Dissociation percent (%) 2 min” value came out at 68.2%, the “Sampling time/Dissociation percent (%) 5 min” value came to 94.4% and the “Sampling time/Dissociation percent (%) 10 min” value is given as 100%. For the same compound, the “Solubility” value in data set [3] stood at 800 µg/mL.

Turning to `CC(=O)O[C@@]12CO[C@@H]1CC[C@@]1(C)[C@@H]3O[C@H](CN(C)C)O[C@@H]3C3=C(C)[C@@H](OC(=O)[C@H](OC(=O)[C@H](F)CC(C)N(C)C)[C@@H](NC(=O)OC(C)(C)C)c4ncccc4F)C[C@@](O)([C@@H](OC(=O)c4ccccc4)[C@@H]12)C3(C)C.Cl` (stereo partly drawn) [Compound C17, 2′-O-[4-N,N-dimethylamino-2(R)-fluorovaleryl]tesetaxel hydrochloride], in data set [1], the “Sampling time/Dissociation percent (%) 2 min” value was 60.7%, the “Sampling time/Dissociation percent (%) 5 min” value was 95.5% and the “Sampling time/Dissociation percent (%) 10 min” value is reported as 100%. For the same compound, in data set [2], the “Sampling time/Dissociation percent (%) 2 min” value is reported as 69.7%, the “Sampling time/Dissociation percent (%) 5 min” value was 96.8% and the “Sampling time/Dissociation percent (%) 10 min” value is 100%. In addition, in data set [3], the “Solubility” value is 1000 µg/mL.

Usually Solubility stands for the concentration that dissolves in the medium under given conditions. A higher Solubility goes with a readily soluble substance.
